# Source: ChEMBL document CHEMBL5038635, “Discovery of Salidroside-Derivated Glycoside Analogues as Novel Angiogenesis Agents to Treat Diabetic Hind Limb Ischemia” (J Med Chem, 2022)
# pEC50: −log10 of the molar value. The source made the active and inactive calls. No cut-off for these calls is given here.
# Key:
# MOVAS-1 [1] = experiment: Induction proliferation of mouse MOVAS-1 assessed as increase in number of EdU-positive cells using conditioned medium of mouse C2C12 cells with silenced HIF-1alpha treated at 30 uM under hyperglycemic condition for 12 hrs followed by hypoxia for 24 hrs by EdU-incorporation assay; type: functional, cell-based; conditions: time 36.0 hrs
# C2C12 [2] = experiment: Apoptotic rate in hyperglycemia-treated mouse C2C12 cells assessed as late apoptotic cells at 15 uM by AnnexinV-FITC/PI staining based flow cytometric analysis (reference value: 10.44 %); type: functional
# C2C12 [3] = experiment: Apoptotic rate in hyperglycemia-treated mouse C2C12 cells assessed as viable cells at 30 uM by AnnexinV-FITC/PI staining based flow cytometric analysis (reference value: 81.90 %); type: functional; conditions: read-out: Activity
# [4] = Permeability coefficient across apical to basolateral side in human Caco-2 cells by HPLC-UV analysis
# C2C12 [5] = experiment: Down regulation of PHD3 mRNA expression in mouse C2C12 cells at 30 uM by qRT-PCR analysis; type: functional, cell-based
# C2C12 [6] = experiment: Upregulation of VEGF-A protein expression in mouse C2C12 cells at 30 uM by Western blot analysis; type: functional, cell-based
# C2C12 [7] = experiment: Apoptotic rate in mouse C2C12 cells with silenced HIF-1alpha assessed as early apoptotic cells at 30 uM by AnnexinV-FITC/PI staining based FACS analysis (reference value: 4.02 %); type: functional
# C2C12 [8] = experiment: Upregulation of EPO protein expression in mouse C2C12 cells at 30 uM by Western blot analysis; type: functional, cell-based
# MOVAS-1 [9] = experiment: Induction proliferation of mouse MOVAS-1 cells assessed as increase in number of EdU-positive cells using conditioned medium of mouse C2C12 cells treated at 30 uM under hyperglycemic condition for 12 hrs followed by hypoxia for 24 hrs by EdU-incorporation assay; type: functional; conditions: time 36 hrs
# C2C12 [10] = experiment: Induction proliferation of mouse C2C12 cells at 30 uM pretreated with compound in hyperglycemia condition for 12 hr followed by hypoxia condition for 24 hrs presence of MeOE2 inhibitor by EdU-incorporation assay; type: functional, cell-based; conditions: time 36.0 hrs
# C2C12 [11] = experiment: Increase in PDGF-BB protein expression level in HIF-1 alpha silenced mouse C2C12 cells at 30 uM by Western blot analysis; type: functional, cell-based
# C2C12 [12] = experiment: Upregulation of PDGF-B protein expression in mouse C2C12 cells at 30 uM by Western blot analysis; type: functional, cell-based
# C2C12 [13] = experiment: Upregulation of ANG1 protein expression in mouse C2C12 cells at 30 uM by Western blot analysis; type: functional, cell-based
# [14] = Metabolic stability in rat leg muscle homogenates assessed as compound remaining after 30 min by HPLC analysis; type: ADME, tissue-based, muscle of leg; conditions: read-out: Stability
# C2C12 [15] = experiment: Angiogenic activity in mouse C2C12 cells assessed as reversal of hyperglycemia-induced reduction in cell number by measuring cell proliferation measured after 12 to 36 hrs; type: functional, cell-based
# [16] = Toxicity in diabetic HLI C57BL/6 mouse model assessed as effect on body weight at 15 to 100 mg/kg, im administered measured after 21 days; type: organism-based; conditions: in vivo, 504 h, dose 15-100 mg/kg, time 21 day
# C2C12 [17] = experiment: Angiogenic activity in mouse C2C12 cells assessed as accumulation VEGF-A protein expression at 300 uM by Western blot analysis; type: functional, cell-based
# C2C12 [18] = experiment: Induction proliferation of mouse C2C12 cells assessed as increase in number of EdU-positive cells at 30 uM under normoglycemic condition by EdU-incorporation assay; type: functional, cell-based
# [19] = Toxicity in diabetic HLI C57BL/6 mouse model assessed as heart pathology at 30 mg/kg, IM administered by HE staining based assay; type: organism-based; conditions: in vivo
# HUVEC = experiment: Induction proliferation of human HUVEC cells assessed as increase in number of EdU-positive cells using conditioned medium of mouse C2C12 cells with silenced HIF-1alpha treated at 30 uM under hyperglycemic condition for 12 hrs followed by hypoxia for 24 hrs by EdU-incorporation assay; type: functional, cell-based; conditions: time 36.0 hrs
# C2C12 [20] = experiment: Apoptotic rate in mouse C2C12 cells with silenced HIF-1alpha assessed as necrotic cells at 30 uM by AnnexinV-FITC/PI staining based FACS analysis (reference value: 0.31 %); type: functional
# C2C12 [21] = experiment: Apoptotic rate in hyperglycemia-treated mouse C2C12 cells assessed as necrotic cells at 15 uM by AnnexinV-FITC/PI staining based flow cytometric analysis (reference value: 0.56 %); type: functional
# [22] = Protein binding in human plasma by balanced dialysis method; type: ADME, cell-free; conditions: read-out: PPB (converted)
# [23] = Efflux ratio of Apparent permeability across basolateral to apical side over apical to basolateral side in human Caco-2 cells
# C2C12 [24] = experiment: Angiogenic activity in mouse C2C12 cells assessed as accumulation ANG1 protein expression at 300 uM by Western blot analysis; type: functional, cell-based
# C2C12 [25] = experiment: Reversal of hyperglycemia-induced VEGF-A protein level reduction in mouse C2C12 cells measured at 30 uM by Western blot analysis; type: functional, cell-based
# C2C12 [26] = experiment: Angiogenic activity in mouse C2C12 cells assessed as reversal of hyperglycemia-induced reduction in total cell number at 7.5 uM measured after 24 hrs by EdU-incorporation assay; type: functional, cell-based
# [27] = biological target: Hypoxia-inducible factor 1-alpha (Mus musculus) (UniProt Q61221); experiment: Inhibition of HIF-1alpha in mouse C2C12 cells transfected with PDGF-B driven firefly luciferase gene assessed as transcriptional activity pretreated with compound for 12 hr followed by hypoxic condition for 24 hrs by dual luciferase reporter gene assay; type: cell-based; conditions: time 36.0 hrs
# Hypoxia-inducible factor 1-alpha (Mus musculus), sequence (Q61221 whole entry): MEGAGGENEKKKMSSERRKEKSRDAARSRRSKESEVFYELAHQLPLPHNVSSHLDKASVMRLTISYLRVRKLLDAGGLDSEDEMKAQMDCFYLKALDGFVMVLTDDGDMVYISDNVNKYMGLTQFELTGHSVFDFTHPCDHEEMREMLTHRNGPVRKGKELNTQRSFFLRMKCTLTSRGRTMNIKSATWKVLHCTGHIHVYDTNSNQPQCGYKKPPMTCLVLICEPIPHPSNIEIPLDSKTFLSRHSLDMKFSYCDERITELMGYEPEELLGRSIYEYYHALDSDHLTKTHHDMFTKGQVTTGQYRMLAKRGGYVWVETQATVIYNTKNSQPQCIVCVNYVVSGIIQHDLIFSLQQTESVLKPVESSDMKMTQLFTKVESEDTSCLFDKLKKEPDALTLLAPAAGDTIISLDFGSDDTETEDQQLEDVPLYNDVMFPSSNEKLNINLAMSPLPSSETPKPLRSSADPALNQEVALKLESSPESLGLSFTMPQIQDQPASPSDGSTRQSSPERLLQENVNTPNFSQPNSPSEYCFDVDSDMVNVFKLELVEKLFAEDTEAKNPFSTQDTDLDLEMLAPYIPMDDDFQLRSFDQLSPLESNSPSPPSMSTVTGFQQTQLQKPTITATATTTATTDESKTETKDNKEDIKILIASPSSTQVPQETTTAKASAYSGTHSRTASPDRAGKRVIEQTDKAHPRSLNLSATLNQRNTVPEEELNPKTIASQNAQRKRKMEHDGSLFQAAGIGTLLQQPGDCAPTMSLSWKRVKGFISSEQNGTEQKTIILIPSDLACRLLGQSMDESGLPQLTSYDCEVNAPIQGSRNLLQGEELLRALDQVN
# C2C12 [28] = experiment: Apoptotic rate in hyperglycemia-treated mouse C2C12 cells assessed as early apoptotic cells at 15 uM by AnnexinV-FITC/PI staining based flow cytometric analysis (reference value: 7.10 %); type: functional
# Mus musculus [29] = experiment: Antidiabetic activity in diabetic HLI C57BL/6 mouse model assessed as PDGF-BB protein expression at 30 mg/kg, im administered for 21 days followed by surgery by Western blot analysis; type: functional, organism-based; conditions: time 21.0 day
# C2C12 [30] = experiment: Angiogenic activity in mouse C2C12 cells assessed as reversal of hyperglycemia-induced reduction in total cell number measured after 12 to 36 hrs; type: functional, cell-based
# Mus musculus [31] = experiment: Angiogenesis activity in nondiabetic HLI C57BL/6 mouse model assessed as as increase in blood perfusion recovery at 30 mg/kg, im administered for 14 days; type: functional, organism-based; conditions: time 14.0 day
# C2C12 [32] = experiment: Induction proliferation of mouse C2C12 cells assessed as suppression of apoptotic rate at 30 uM under normoglycemic condition by Annexin V/PI staining based Flowcytometry method; type: functional, cell-based
# Mus musculus [33] = experiment: Antidiabetic activity in diabetic HLI C57BL/6 mouse model assessed as effect on blood glucose level at 30 mg/kg administered intramuscularly measured after 3 days; type: functional, organism-based; conditions: time 3.0 day
# C2C12 [34] = experiment: Angiogenic activity in mouse C2C12 cells assessed as accumulation PDGF-BB protein expression at 300 uM by Western blot analysis; type: functional, cell-based
# C2C12 [35] = experiment: Angiogenesis activity in mouse C2C12 cells assessed as decrease in apoptotic rate at 30 uM under hyperglycemia condition presence of MeOE2 inhibitor by Annexin V/PI staining based Flowcytometry method; type: functional, cell-based
# C2C12 [36] = experiment: Reversal of hyperglycemia-induced PDGF-BB protein level reduction in mouse C2C12 cells measured at 30 uM by Western blot analysis; type: functional, cell-based
# C2C12 [37] = experiment: Upregulation of FGF18 protein expression in mouse C2C12 cells at 30 uM by Western blot analysis; type: functional, cell-based
smiles,measurement,setting,value
COc1ccc(Cc2cccc(O[C@@H]3O[C@H](CO)[C@@H](O)[C@H](O)[C@H]3O)c2)cc1,Activity,MOVAS-1 [1],Active
same,Activity,C2C12 [2],7.61%
same,viability at 30 µM,C2C12 [3],93.6%
same,Papp A→B,[4],1.04 ×10⁻⁶ cm/s
same,Activity,C2C12 [5],Active
same,Activity,C2C12 [6],Active
same,Activity,C2C12 [7],3.18%
same,Activity,C2C12 [8],Active
same,fold change (FC),MOVAS-1 [9],2
same,Activity,C2C12 [10],inactive
same,Activity,C2C12 [11],inactive
same,Activity,C2C12 [12],Active
same,Activity,C2C12 [13],Active
same,remaining at 0.5 h,[14],99%
same,pEC50,C2C12 [15],4.76
same,Activity,[16],Non-Toxic
same,inhibition,C2C12 [17],Active
same,Activity,C2C12 [18],Active
same,Activity,[19],Non-Toxic
same,Activity,HUVEC,Active
same,Activity,C2C12 [20],0.16%
same,Activity,C2C12 [21],0.38%
same,fraction unbound,[22],0.669
same,efflux ratio,[23],1.07
same,inhibition,C2C12 [24],Active
same,Activity,C2C12 [25],Active
same,Activity,C2C12 [26],Active
same,inhibition,[27],Active
same,Activity,C2C12 [28],3.14%
same,Activity,Mus musculus [29],Active
same,pEC50,C2C12 [30],4.90
same,Activity,Mus musculus [31],Active
same,Activity,C2C12 [32],Active
same,Activity,Mus musculus [33],Active
same,inhibition,C2C12 [34],Active
same,Activity,C2C12 [35],inactive
same,Activity,C2C12 [36],Active
same,Activity,C2C12 [37],Active
